Laboratory results: patent publication US9486430B2, “Treatment of neurodegenerative disease” (priority 2010, dated 2016)

Assays:
[1] = carbidopa with levodopa; cited from earlier work
patients = details: some patients; cited from earlier work
[2] = tested on: patient with stage four idiopathic Parkinson's Disease; experiment: Observation of a stage four Parkinson's Disease patient on t-RES with SINEMET (Tremor Rating Scale, UPDRS); format: in vivo, human
From the text: (§1) As described in detail below, the parameters used to measure these findings were basic observations of speech, gait, overall function and tremor before and after administering t-RES over a period of months using the author's Tremor Rating Scale (TRS) in addition to the UPDRS (Fahn, et al., Recent Developments in Parkinson's Disease, 1989). […] The International Normalized Ratio is a measure of clotting speed in the blood used especially as an indicator of Warfarin levels in the blood in patients with Atrial Fibrillation who need reduced clotting probability, to prevent strokes and pulmonary embolisms—but not so reduced as to increase the chances of hemorrhage, especially from trauma. The INR in a normal person ranges from 0.8 to 1.2 in an A-Fib patient the INR should be maintained between 2.0 and 3.0 (Avery, et al., Clin. Pharmacol. Ther., 2011).
In a particular embodiment, the effect of t-RES on a patient with stage four idiopathic Parkinson's Disease was observed. The patient was followed closely for fourteen months while receiving t-RES. t-RES was administered daily and changes in speech, handwriting, gait, leg movement, and dyskinesias were observed. […] Handwriting samples were taken before and after taking t-RES.
Starting dose of ½ pill 3 times/day SINEMET® 25/100 and 4 pills/day SINEMET® CR 25/100. Doses were given every four hours starting at 7 am.
Eleven months into the study, patient was taking 500 mg t-RES/day, considered the lowest mega-dose, plus the added 100 mg general polyphenols which are mixed into each 125 mg t-RES capsule.
This was achieved using a scale devised by the inventor, with three states: tremor, no dyskinesia (T, ND=0); non-tremor, no dyskinesia (NT, ND=1); and dyskinesia, no tremor (D, NT=2). The patient's state was recorded every half hour from 7 am to 10 pm by the author and caregivers on all days practicable.
Daily numbers from the inventor's 0-2 Tremor Rating Scale (TRS) scale were then tallied and entered into the Unified Parkinson's Disease Rating Scale (UPDRS) for comparison.
The doses of t-RES, SINEMET® and other supplements were also noted, with adjustments being made as necessary. The results were then examined for overall changes observed when the t-RES dose was increased every few months as shown in FIG. 2.

[3] = mice; cited from earlier work
[4] = tested on: patient with Parkinson's Disease; experiment: Tolerability of other drugs and supplements in the Parkinson's Disease patient
From the text: Patients on the anticoagulant warfarin are expected to have a reading between 2 and 3, with three being the least coagulated.

healthy volunteers = details: cited from earlier work; for adverse effects in healthy volunteers: up to 5 g (5000 mg per day)
[5] = International Normalized Ratio (INR) anticoagulation test in the Parkinson's Disease patient; format: in vivo, human; details: for INR: ref. range 0.8-1.2
From the text: as §1

[6] = Kidney function test in the Parkinson's Disease patient; format: in vivo, human; details: patient on t-RES; data not shown
[7] = tested on: monoamine oxidase A (MAO-A), MAO-B; details: rat brain; cited from earlier work
[8] = tested on: amyloid plaques in mouse brain; details: dietary supplementation, transgenic model of Alzheimer's Disease; cited from earlier work

C[C@@](Cc1ccc(O)c(O)c1)(NN)C(=O)O [Carbidopa, carbidopa]
reduction of the amount of levodopa required to produce a given response [1]: about 75%

C#CCN(C)[C@H](C)Cc1ccccc1 [deprenyl]
extension of lifespan (patients): up to 10 years

N[C@@H](CCC(=O)N[C@@H](CS)C(=O)NCC(=O)O)C(=O)O [glutathione]
symptoms on reducing glutathione ([2]; glutathione reduced while on t-RES and SINEMET): worsening of symptoms

Cc1ccc(NC(=O)c2ccc(CN3CCN(C)CC3)cc2)cc1Nc1nccc(-c2cccnc2)n1 [imatinib]
crossing of the blood-brain barrier [3]: not able to cross the blood-brain barrier

C#CCN[C@@H]1CCc2ccccc21 [rasagiline]
tolerability in the patient ([4]; human, in vivo): neither was tolerated

Oc1ccc(C=Cc2cc(O)cc(O)c2)cc1 [resveratrol, 3,5,4′-trihydroxy-stilbene]
reported adverse events (healthy volunteers; 2000 mg twice daily, two-week study, eight healthy adults): minor diarrhea | adverse effects in healthy volunteers (healthy volunteers): no adverse effects

C#CCN(C)[C@H](C)Cc1ccccc1 [selegiline]
tolerability in the patient ([4]; therapy in conjunction with SINEMET): neither was tolerated

Oc1ccc(/C=C/c2cc(O)cc(O)c2)cc1 [t-RES, 3,5,4′-trihydroxy-trans-stilbene]
INR ([5]; 250 mg t-Res + 81 mg/day aspirin, Oct. 26, 2010): 1 | INR score (blood coagulation) ([5]; 500 mg followed by 625 mg t-RES, eight and 12 months into the study, normal range 0.8-1.2): 1 | INR ([5]; 500 mg t-Res, Mar. 14, 2011): 1.0 | INR ([5]; 625 mg t-Res, Jul. 6, 2011): 1.0 | adverse effects in healthy volunteers (healthy volunteers): no adverse effects | Total Levodopa per day ([2]; 14 months post t-RES (625 mg/day), September 2011, 550 mg before t-RES): day = 500 mg max | tremors and dyskinesias, share of the day ([2]; UPDRS ratings, t-RES plus SINEMET, FIG. 2, rarely over): ≤ 25 % of the day | patient's "on" time, share of the day ([2]; UPDRS-based, t-RES plus SINEMET, FIG. 2): 75 % of the day | dyskinesias on t-RES dose increase ([2]; each increase of t-RES by 125 mg/day, with SINEMET, FIG. 2, FIG. 3): dyskinesias increased | need for SINEMET per day after starting t-RES ([2]; first few days of t-RES, from 1½ tablets per day (150 mg levodopa) to one tablet per day): 100 mg levodopa | cognition and speech ([2]; following first administration of t-RES (125 mg capsule)): overnight improvement in cognition and speech | hallucinations ([2]; soon after beginning t-RES): completely eliminated on most days | Kidney function [6]: within the normal range | inhibition of MAO-A compared with MAO-B [7]: slightly more than MAO-B | amyloid plaques in mouse brain [8]: reduce the number of amyloid plaques
